Experimental data taken from patent publication US11179407B2, “Method for synthetically producing arabinogalactan compounds derived from plants and uses of said compounds for the prophylaxis of allergic reactions” (Forschungszentrum Borstel Leibniz-Zentrum für Medizin und …, priority 2015, dated 2021).

Legend:
IgE = test: total IgE in BAL fluid by ELISA in OVA/Alum mouse model; assay type: in vivo, mouse (BALB/c); conditions: FIG. 3, i.n. treatment
Method: (§1) Mice were sensitized by intraperitoneal injection of 20 μg ovalbumin (OVA; GradeV; Sigma, St. Louis, Mo.) emulsified in 2.2 mg aluminum hydroxide (ImjectAlum; Pierce, Rockford, Ill.) in a total volume of 200 μl on days 1 and 14. On days 28 and 38 mice were challenged via the airways with 1% OVA aerosol for 20 min using a PARI-Boy aerosol generator.
(§2) Mice were treated with the synthetic substances during the sensitization phase. Substances were administered intranasally in 50 μl of PBS. Mice were treated 14 times beginning on the day of the first OVA injection and the last treatment six days before the second OVA-aerosol challenge. Control groups were sensitized as described above and treated 14 times with phosphate buffered saline (PBS).
Blood was collected by tail vein puncture two days after the second aerosol challenge. BAL was collected as described above. Levels of total IgE in serum or BAL fluid were determined by ELISA (Ebioscience). Levels of BSA-specific IgG1 were determined by indirect ELISA. Briefly, plates were coated with 50 μg/ml BSA followed by blocking with 1% low fat milk powder. The serum was diluted 1/100 in PBS and incubated on the BSA coated wells for 1 h, followed by detection of bound antibodies by alkaline phosphatase coupled rat anti mouse IgG1 (BDbiosciences).

[1] = system: IL-5 and IL-13 production by spleen cells; test: in vitro cytokine production (IL-5, IL-13) of mouse splenocytes re-stimulated with OVA after in vivo treatment; design: species or system mouse (BALB/c); conditions: FIG. 3, i.n. treatment during sensitization and challenge
Method: as §1, §2
Spleens were harvested 3 days after the second aerosol challenge. Single cell suspensions were prepared by mechanical disruption and erythrocytes were lysed. Spleen cells were then cultured at a concentration of 5×10^6/ml in complete tissue culture medium (CTCM) (RPMI 1640 with 10% fetal calf serum (FCS), 2 mM L-glutamine, 100 U/ml penicillin, 100 μg/ml streptomycin, all from Biochrom, Berlin, Germany). To stimulate specific cytokine production OVA was added to a final concentration of 50 μg/ml. […] Levels of IL-5 and IL-13 were assessed by using optEIA kits (BD Biosciences, Heidelberg, Germany) according to the manufacturer's instructions.

[2] = system: allergic airway inflammation; test: mouse model of allergic airway inflammation (OVA/Alum sensitization, OVA aerosol challenge): BAL cells and lung sections; assay type: in vivo, mouse (BALB/c)
Method: Female BALB/c mice (Charles River, Sulzfeld, Germany) aged 7-8 weeks were used and acclimated to the animal facility for 14 days prior to experiments. Animals had access to food and water ad libitum. All experimental procedures were approved by the responsible animal ethics committees. Mice were sensitized by intraperitoneal injection of 20 μg ovalbumin (OVA; GradeV; Sigma, St. Louis, Mo.) emulsified in 2.2 mg aluminum hydroxide (ImjectAlum; Pierce, Rockford, Ill.) in a total volume of 200 μl on days 1 and 14. On days 28 and 38 mice were challenged via the airways with 1% OVA aerosol for 20 min using a PARI-Boy aerosol generator. Mice were treated with the synthetic substances during the sensitization phase. Substances were administered intranasally in 50 μl of PBS. Mice were treated 14 times beginning on the day of the first OVA injection and the last treatment six days before the second OVA-aerosol challenge. Control groups were sensitized as described above and treated 14 times with phosphate buffered saline (PBS). Three days after OVA challenge lungs were lavaged via a tracheal tube with 2×1 ml PBS, and leukocytes in the lavage fluid were counted. After centrifugation, BAL fluid was frozen for further analysis. […] The percentages of eosinophils, lymphocytes and macrophages in BAL samples were determined by light microscopy. […]

## OCC1O[C@@H](OCC2O[C@@H](OCC3O[C@@H](OCCCCCc4ccc(N=C=S)cc4)C(O)C(O)[C@H]3O)C(O)C(O[C@H]3O[C@@H](CO[C@@H]4O[C@@H](CO)C(O)C4O)C(O)C3O)[C@H]2O)C(O)C(O)[C@H]1O (stereo partly shown) [Araf2Galp3]
IgE
  IgE production: not able to reduce these parameters significantly
[1]
  Th2 response as measured by in vitro production of IL-5 and IL-13 by spleen cells: not able to reduce these parameters significantly
[2]; FIG. 3, i.n. treatment, BAL
  eosinophilic airway inflammation: not able to reduce these parameters significantly
[2]; FIG. 3 experiment, determined in lung sections
  goblet cell metaplasia: not able to reduce these parameters significantly
